In patent US20220087970A1, “PREVENTION OF ANESTHETIC-INDUCED NEUROCOGNITIVE DYSFUNCTION” (The Johns Hopkins University, priority 2019, published 2022):

How the values were obtained:
[1] = system: PSD-95 or PSD-93 and the NMDA receptor or nNOS; conditions: clinically relevant concentrations; Fang et al., 2003; Tao et al., 2015; cited from earlier work
[2] = system: primary neuron cultures; test: Primary neuron cultures, long thin spines and filopodia at DIV7; format: cell-based; conditions: for effect on PDZ2WT-induced loss of long thin spines and filopodia at DIV7: PDZ2WT peptide 1 μM 4 hrs; for effect on PDZ2WT-induced loss of long thin spines and filopodia at DIV7 / effect on isoflurane-induced loss of long thin spines and filopodia at DIV7: DETA NONOate 150 μM, ODQ 100 μM added to NO donor; for effect on isoflurane-induced loss of long thin spines and filopodia at DIV7: isoflurane 1.5% 4 hrs
Method: Primary neuron cultures were exposed to control gas (25% O2, 5% CO2, bal N2), isoflurane (1.5% ISO in 25% O2, 5% CO2, bal N2), DETA NONOate NO donor 150 μM and sGC inhibitor ODQ 100 μM for 4 hrs. […] MAP2 dendrite marker, green. Drebrin A/E immature spine/filopodia marker, red. Scale bar is 5 μm. FIG. 20B, Density of long thin spines and filopodia at DIV7 among exposed groups analyzed using Imaris 93.1;
MAP2, green. Drebrin, red. Scale bar is 5 μm. FIG. 21B, show the density of long thin spines and filopodia among exposed groups;
Neuron cultures were exposed to control gas (25% O2, 5% CO2, balance N2) or sevoflurane (2.1% ISO in 25% O2, 5% CO2, balanced N2) for 4 hrs. […] Scale bar is 5 μm. FIG. 22B, Density of long thin spines and filopodia among exposed groups; and […]

[3] = system: neuron cultures; test: Neuron cultures, synapses (PSD95/Synaptophysin puncta) at DIV14; format: cell-based; conditions: DETA 150 μM and ODQ 100 μM for 4 hrs right before exposure to gases at DIV7
Method: Neuron cultures were transfected with GFP-AAV virus at DIV-4 and were exposed to NO donor (DETA) 150 μM and sGC inhibitor (ODQ) 100 μM for 4 hrs right before exposure to gases at DIV7. Cells were returned back to incubator with half media change every second day. At DIV14, cells were fixed and stained with PSD95 and Synaptophysin. […] Scale bar is 5 μm. FIG. 23B: Synapse were analyzed using puncta analyzer plugin as shown in methods section.

[4] = system: ERK; test: Western blot, phosphorylation status of ERK in hippocampal tissues; format: in vivo; conditions: PND7 mice; BAY 60-7550 3 mg/kg 30 min, molsidomine 4 mg/kg 30 min
Method: PND7 mice were exposed to isoflurane (1.5% ISO in 02, 4 hr), control gas (100% O2, 4 hr), PDE inhibitor (BAY 60-7550, 3 mg/kg, 30 min), or NO donor (molsidomine, 4 mg/kg, 30 min), we harvested hippocampal tissues for Western blotting to assess the phosphorylation status of ERK.

[5] = system: hippocampal CA1 LTP (Schaffer collateral pathway); test: Extracellular field-potential recordings, LTP in hippocampal slices at PND21; format: in vivo, mice; conditions: molsidomine 4 mg/kg ip after PND7 exposure
Method: 1.3.2 Anesthesia, Peptide, and Molsidomine Injections. PND7 control and experimental mice were placed in a clear plastic cone and body temperature maintained by a heating blanket set to 35° C. Vital signs and physiological monitoring were assessed using PhysioSuite® (Kent Scientific Corporation, Torrington, Conn., USA) and blood gasses were collected arterially. […] Note that lower concentrations of 02 can be used, e.g., between 20% to 100% 02, including 20%, 25%, 30%, 35%, 40%, 45%, 50%, 55%, 60%, 65%, 70%, 75%, 80%, 85%, 90%, 95%, 96%, 97%, 98%, 99%, and 100% 02. Naïve animals were left with the dams. Anesthesia was initiated with 2.4% ISO in 100% oxygen for 2 min and tapered down to 1.5% within 15 min. Exposure to 1.5% ISO was continued for 3 hours and 45 min (total 4 hours ISO). Control ‘CON’ animals were exposed to 100% oxygen only. At the end of the exposure animals were maintained in oxygen on the heating blanket for 10 min then returned to dams. […] Tao and Johns, 2008. A single injection of peptide was given ip. […]
1.3.6.2. […] Synaptic responses were recorded using a MultiClamp 700B amplifier, and the signal was digitized with Digidita 1440A, analyzed with pClamp10 and stored on a personal computer. […] Measurements of the fEPSP slopes were made during the rising phase (5-50% of the peak) and the values normalized to the mean values recorded in 20-min baseline. […]

[6] = system: C57BL6 mice; test: Novel object recognition at PND21; format: in vivo; conditions: molsidomine 4 mg/kg ip after PND7 exposure, PND21
Method: 1.3.2 Anesthesia, Peptide, and Molsidomine Injections. PND7 control and experimental mice were placed in a clear plastic cone and body temperature maintained by a heating blanket set to 35° C. Vital signs and physiological monitoring were assessed using PhysioSuite® (Kent Scientific Corporation, Torrington, Conn., USA) and blood gasses were collected arterially. […] Note that lower concentrations of 02 can be used, e.g., between 20% to 100% 02, including 20%, 25%, 30%, 35%, 40%, 45%, 50%, 55%, 60%, 65%, 70%, 75%, 80%, 85%, 90%, 95%, 96%, 97%, 98%, 99%, and 100% 02. Naïve animals were left with the dams. Anesthesia was initiated with 2.4% ISO in 100% oxygen for 2 min and tapered down to 1.5% within 15 min. Exposure to 1.5% ISO was continued for 3 hours and 45 min (total 4 hours ISO). Control ‘CON’ animals were exposed to 100% oxygen only. At the end of the exposure animals were maintained in oxygen on the heating blanket for 10 min then returned to dams. […] Tao and Johns, 2008. A single injection of peptide was given ip. Separate peptide cohorts were injected in parallel with mice undergoing exposure to anesthesia or O2 control. Purification of fusion peptides was performed by Creative BioMart (Shirley, N.Y.) and verified by Coomassie blue staining and Western blot analysis and then stored in 10% glycerol/phosphate buffered saline at −80° C. until use. The Tat-PSD-95 PDZ2WT and MUT plasmids used to generate proteins containing an amino-terminal, in-frame, 11-amino-acid, minimal transduction domain (residues 47-57 of human immunodeficiency virus Tat protein) termed Tat. […] Fang et al., 2003. The NO donor molsidomine [(N-[ethoxycarbonyl]-3-[4-morpholinosydnomine] (Sigma, St. Louis, Mo.) was injected at 4 mg/kg into mice ip in 100 μL sterile saline as previously described. The NO donor was added immediately following cessation of anesthesia or control (O2) exposure, i.e., the NO donor was injected 4 hours after onset of anesthesia. One of ordinary skill in the art upon review of the present disclosure would appreciate that the NO donor could be administered at other times during anesthesia, including at the onset of anesthesia. Control animals were injected ip with the vehicle (saline).
1.3.7 Novel Object Recognition. The novel object recognition (NOR) procedure was based upon the original Ennaceur et al., 1988, procedure and was used to assess nonspatial hippocampal memory. Clark et al., 2000; Baker and Kim, 2002; Reger et al., 2009. It consisted of a training ‘familiarization’ phase followed by a testing phase. During training, mice were allowed to freely explore within an opaque box (40 cm W×40 cm L×34 cm H) containing two identical objects for 10 min. Data were recorded with a video camera and time spent with each object was recorded using ANYmaze software (Stoelting). Object investigation time was determined by the amount of time the mouse spent in the zone immediately surrounding the object. […] After 2 h, object recognition was tested, using the same procedure as in training except that a novel object was substituted for one of the familiar training objects and mice were allowed to explore for 5 min. Mice inherently prefer to explore novel objects; thus, a preference for the novel object indicates intact memory for the familiar object.

[7] = system: hippocampal dendritic mushroom spines (dentate gyrus); format: in vivo, mice; conditions: molsidomine 4 mg/kg ip after PND7 exposure, PND49
Method: PND7 control and experimental mice were placed in a clear plastic cone and body temperature maintained by a heating blanket set to 35° C. Heart rate (HR) and oxyhemoglobin saturation (SpO2) were continuously monitored using pulse-oximetry (PhysioSuite, Kent Scientific). Arterial blood was collected by terminal cardiac puncture of the left ventricle from sentinels and pH (pHa) determined using a blood gas machine (ABL800 FLEX Series Radiometer). […] Naïve control animals were left with the dams. Control ‘CON’ animals were exposed to oxygen only. Anesthesia was initiated with 2.4% isoflurane in oxygen for 2 min and tapered down to 1.5% within 15 min. Exposure to 1.5% isoflurane was continued for 3 hours and 45 min (total 4 hours ISO). At the end of the exposure animals were maintained in oxygen on the heating blanket for 10 min then returned to dams. […] Tao and Johns, 2008. Purification of fusion peptides was performed by Creative BioMart (Shirley, N.Y.) and verified by Coomassie blue staining and Western blot analysis and then stored in 10% glycerol/phosphate-buffered saline at −80° C. until use. The Tat-PSD-95 PDZ2WT and MUT plasmids used to generate proteins containing an amino-terminal, in-frame, 11-amino-acid, minimal transduction domain (residues 47-57 of human immunodeficiency virus Tat protein) termed Tat. […] Fang et al., 2003. […]

| Structure (SMILES) | PDZ domain-mediated protein interactions [1] | effect on isoflurane-induced loss of synapses at DIV14 [3] | effect on PDZ2WT-induced loss of long thin spines and filopodia at DIV7 [2] | effect on isoflurane-induced loss of long thin spines and filopodia at DIV7 [2] | amount of pERK [4] | other results |
| --- | --- | --- | --- | --- | --- | --- |
| FCOC(C(F)(F)F)C(F)(F)F [sevoflurane, 1,1,1,3,3,3-hexafluoro-2-(fluoromethoxy)propane] | can disrupt PDZ domain-mediated protein-protein interactions in vitro and in vivo | – | – | – | – | long thin spines and filopodia at DIV7 after exposure ([2]; 4 hrs: isoflurane 1.5%, PDZ2WT peptide 1 μM or sevoflurane 2.1%): loss of filopodia |
| O=c1onc2cnc3ccccc3n12 [ODQ] | – | blocked the prevention with DETA | blocked the prevention with NO donor | blocked the prevention with NO donor | – | – |
| CCOC(=O)Nc1c[n+](N2CCOCC2)no1 [molsidomine, N-ethoxycarbonyl-3-morpholinosydnonimine] | – | – | – | – | significant increases in the amount of pERK | effect of NO donor on impairment in LTP caused by ISO or PDZ2WT peptide [5]: prevents impairment in LTP and recognition memory; effect of NO donor on impairment in recognition memory caused by ISO or PDZ2WT peptide [6]: prevents impairment in LTP and recognition memory; effect of NO donor on decrease in mushroom spine density caused by isoflurane or PDZ2WT peptide [7]: prevents the decrease in mushroom spine density |
| COc1ccc(Cc2nn3c([C@@H](CCCc4ccccc4)[C@@H](C)O)nc(C)c3c(=O)[nH]2)cc1OC [BAY 60-7550] | – | – | – | – | significant increases in the amount of pERK | – |
| NCCN(CCN)/[N+]([O-])=N/O [DETA NONOate] | – | prevented loss of synapses | prevented loss of immature spines | prevented loss of immature spines | – | – |
| FC(F)(F)C(Cl)Br (centres unmarked) [halothane, 2-bromo-2-chloro-1,1,1-trifluoroethane] | can disrupt PDZ domain-mediated protein-protein interactions in vitro and in vivo | – | – | – | – | – |
